Laboratory results taken from PubChem BioAssay AID1259407 (Chemical Carcinogenesis Research Information System (CCRIS), 2018).
Active and inactive are the calls of the source. The rule behind the calls is not given here.

Test system: CCRIS mutagenicity, Ames/micronucleus/aberration tests
Experiment: CCRIS mutagenicity studies
[1] = Test System: AMES SALMONELLA TYPHIMURIUM, Strain/Indicator: TA100, Metabolic Activation: NONE, Method: STANDARD PLATE

## CCOc1ccc(N(O)C(=O)CC(C)O)cc1 (stereo not drawn)
Test System: AMES SALMONELLA TYPHIMURIUM, Strain/Indicator: TA100, Metabolic Activation: HAMSTER, LIVER, S-9, KANECHLOR 400 (WITHOUT NADPH GENERATING SYSTEM), Method: PREINCUBATION
  mutagenic call: active; positive
Test System: AMES SALMONELLA TYPHIMURIUM, Strain/Indicator: TA100, Metabolic Activation: NONE, Method: PREINCUBATION
  mutagenic call: inactive; negative

## COc1cc(COC(=O)CCCCCCC(C)C)ccc1O
End Point: In vivo micronucleus, Test System: Bone marrow polychromatic erythrocytes, Species: Mouse, Strain/Sex: BDF1/male, Route: Oral
  mutagenic call: inactive; negative
Test System: Ames Salmonella typhimurium, Strain/Indicator: TA98, Metabolic Activation: None, Method: Preincubation
  mutagenic call: inactive; negative
Test System: Ames Salmonella typhimurium, Strain/Indicator: TA98, Metabolic Activation: Rat, Liver, S-9, Phenobarbital and 5,6-benzoflavone, Method: Preincubation
  mutagenic call: inactive; negative
Test System: Ames Salmonella typhimurium, Strain/Indicator: TA100, Metabolic Activation: Rat, Liver, S-9, Phenobarbital and 5,6-benzoflavone, Method: Preincubation
  mutagenic call: inactive; negative
Test System: Ames Salmonella typhimurium, Strain/Indicator: TA1535, Metabolic Activation: None, Method: Preincubation
  mutagenic call: inactive; negative
Test System: Ames Salmonella typhimurium, Strain/Indicator: TA1535, Metabolic Activation: Rat, Liver, S-9, Phenobarbital and 5,6-benzoflavone, Method: Preincubation
  mutagenic call: inactive; negative
Test System: Ames Salmonella typhimurium, Strain/Indicator: TA1537, Metabolic Activation: Rat, Liver, S-9, Phenobarbital and 5,6-benzoflavone, Method: Preincubation
  mutagenic call: inactive; negative
Test System: E. coli, Strain/Indicator: WP2 uvrA, Metabolic Activation: None, Method: Preincubation
  mutagenic call: inactive; negative
Test System: E. coli, Strain/Indicator: WP2 uvrA, Metabolic Activation: Rat, Liver, S-9, Phenobarbital and 5,6-benzoflavone, Method: Preincubation
  mutagenic call: inactive; negative

## O=C1C=C(Cl)C(=O)C1(Cl)Cl
[1]
  mutagenic call: active; positive

## O=[N+]([O-])c1cc2ccc3cccc4ccc(c1O)c2c34
Test System: AMES SALMONELLA TYPHIMURIUM, Strain/Indicator: TA98(NR), Metabolic Activation: NONE, Method: STANDARD PLATE
  mutagenic call: active; positive
Test System: AMES SALMONELLA TYPHIMURIUM, Strain/Indicator: TA98, Metabolic Activation: NONE, Method: STANDARD PLATE
  mutagenic call: active; positive
Test System: AMES SALMONELLA TYPHIMURIUM, Strain/Indicator: TA98, Metabolic Activation: RAT, LIVER, S-9, AROCLOR 1254, Method: STANDARD PLATE
  mutagenic call: active; positive
[1]
  mutagenic call: active; positive
Test System: AMES SALMONELLA TYPHIMURIUM, Strain/Indicator: TA100, Metabolic Activation: RAT, LIVER, S-9, AROCLOR 1254, Method: STANDARD PLATE
  mutagenic call: active; positive

## Fc1cnc2c(c1)cc(F)c1ccccc12
Test System: AMES SALMONELLA TYPHIMURIUM, Strain/Indicator: TA100, Metabolic Activation: RAT, LIVER, S-9, PHENOBARBITAL AND 5,6-BENZOFLAVONE, Method: PREINCUBATION
  mutagenic call: inactive; negative
